According to patent US20250352524A1, “PREVENTION OF METASTATIC OUTGROWTH USING TEAD INHIBITORS” (Georgetown University, priority 2024, published 2025):
Entries after “also recorded” stand apart in the source; their conditions may differ.

Experiments:
[1] = tested on: E0771 mammary carcinoma cells; assay: E0771 mammary fat pad tumors in C57/BL6 mice, lung metastasis and lung immune profiling; assay type: in vivo; conditions: for primary tumor growth / size: 30 mg/kg daily oral gavage from palpable tumors (3 weeks), resection at week 4; for lung metastases (number of mice / incidence): 30 mg/kg daily vs vehicle, H&E lung sections
Protocol: In this study, E0771 mammary carcinoma cells were injected into the MFP of C57/BL6 mice. Treatment for this group started after tumors were palpable at 3-4 weeks. Similarly, no effect was observed on the primary tumor growth, yet lung metastases were decreased (FIG. 3, Panels A and B). […] Additionally, lung infiltrating CD8+ T-cells increased in iTEAD-treated mice (FIG. 3, Panel D).
E0771 cells were injected into the mammary fat pad of C57BL/6 mice (Johnstone et al., 2015). When primary tumors became palpable at 3 weeks, mice were treated daily with VT107 or vehicle control. Mice weights were monitored throughout treatment (FIG. 8, Panel B). Primary tumors were surgically resected at week 4 and mice were euthanized at week 6 to inspect lungs for metastases (FIG. 9, Panel A)
There was no difference in the primary tumor size between treatment groups nor the size of recurrent tumors at 6 weeks (FIG. 9, Panel B and FIG. 8, Panel C). […] To investigate tissue specific effects, gene expression changes between treatment groups in lung and tumor tissues were analyzed by RNA-sequencing. […] To reduce the impact of TEAD inhibition on cancer cell intrinsic function such as dissemination and invasion, 4T1, a triple negative mouse mammary carcinoma cell line (Pulaski & Ostrand-Rosenberg, 2000), was injected into the tail vein of BALB/c mice that directly seed into the lung tissue. A reduction in lung metastases, as well as the suppression of inflammatory pathways, were observed (FIG. 9, Panels E and F, and FIG. 8, Panel F).
Formalin-fixed, paraffin embedded (FFPE) lung tissue sections were stained with hematoxylin and eosin. Immunohistochemistry staining was performed on FFPE tumor and lung tissue sections. Slides were deparaffinized in xylene and rehydrated following a series of ethanol washes. Heat-induced antigen retrieval was then performed by placing slides in warmed sodium citrate buffer (pH 6.0) (Invitrogen, 005000) in a pre-heated steamer for 20 minutes. Slides were cooled at room temperature for an additional 20 minutes, prior to quenching endogenous peroxidase activity using 3% hydrogen peroxide buffer (Fisher, BP2633500) for 10 minutes. Next, slides were incubated overnight at 4° C. with either anti-CD8 (Cell Signaling Technology, #98941), anti-CD68 (Abcam, ab303565), anti-CD206 (Cell Signaling Technology, #24595), or anti-F480 (Cell Signaling Technology, #70076). Following PBS washes, the slides are then stained with a biotinylated secondary antibody using the VECTASTAIN Elite ABC-HRP Kit according to the user's manual (Vector Laboratories, PK-6101). Positive brown staining was produced by applying ImmPACT DAB EqV Substrate Kit (Vector Laboratories, SK-4103) to the slides, which were then counterstained with hematoxylin (Sigma, MHS16). Images were captured using the Olympus BX40 microscope, and positive staining was quantified manually. Immunofluorescent staining was performed on lung tissue sections. Slides were baked at 60°, deparaffinized in xylene, rehydrated, washed in DI water and incubated with 10% neutral buffered formalin (NBF) for an additional 20 minutes to increase tissue-slide retention. Epitope retrieval/microwave treatment (MWT) for all antibodies was performed by boiling slides in Antigen Retrieval buffer 6 (AR6 pH6, Akoya AR6001KT). Protein blocking is performed using antibody diluent/blocking buffer (Akoya, ARD1001EA) for 10 minutes at room temperature. Slides were incubated with Luciferase antibody (Sigma, #L0159) for 1 hour and OPAL Fluoresce 620 then counterstained with spectral DAPI (Akoya FP1490) for 5 min and mounted with ProLong Diamond Antifade (ThernoFisher, P36961). Slides were scanned at 10× magnification using the Vectra 3.0 Automated Quantitative Pathology Imaging System (PerkinElmer/Akoya).
Single cell suspensions were washed 2× with PBS. […]

DCIS cells = assay: Real Time Cell Analysis, proliferation of DCIS cells; assay type: cell-based, human; conditions: VT107 at varying concentrations, cell index
Protocol: To further examine the effect of TEAD inhibition on the myeloid compartment of the lung, a human breast cancer cell line MCFDCIS (DCIS) that metastasizes to the lungs when a small population of cells (DCISA4) expresses an isoform of the transcription coactivator amplified in breast cancer 1 (Sharif et al., 2021), was used. DCIS:DCISA4 cells were injected into the mammary fat pad of NOD/SCID mice. Mice were treated daily with VT107. Tumors were surgically removed at week 4 and lungs were monitored for metastases for another 4 weeks without receiving additional treatment (FIG. 13, Panel B). Mouse body weights were measured weekly throughout the course of treatment (FIG. 13, Panel C). […] All mice in the vehicle treated group developed lung metastases as previously reported (Sharif et al., 2021). […] RNA was extracted from lung tissues to further examine the host stroma affected by VT107. RNA sequencing reads from the lungs were aligned to the mouse transcriptome to shed light on the host tissue changes in response to treatment in the presence of seeded cancer cells. […]
Cell analysis was done using E-plates from xCELLigence, (Agilent, #5469830001) according to the manufacturer's protocol. […] Cell index was measured by changes in electric impedance at 15 min intervals. […]

[2] = flow cytometry, tumor bearing mice
[3] = flow cytometry, tumor bearing mice, listed as iTEAD

VT107
primary tumor growth / size [1]: no difference | primary tumor growth / size ([1]; listed as iTEAD): no effect; also recorded: no change | lung metastases (number of mice / incidence) [1]: significantly less incidence | lung metastases (number of mice / incidence) ([1]; listed as iTEAD): decreased; also recorded: reduced | number of CD8+ T-cells in lung tissue ([1]; CD8 immunohistochemistry, tumor bearing mice, listed as iTEAD): increase in the number and infiltration; also recorded: significantly greater | CD8+ T-cells in lung metastatic lesions ([1]; CD8 immunohistochemistry, listed as iTEAD): infiltrated into lung metastases | number of gene changes due to treatment, lungs compared to primary tumors ([1]; RNA-sequencing): higher number | size of recurrent tumors ([1]; at 6 weeks, 2 weeks after resection): no difference | CD86 (M1-like) in the lung macrophage population [1, 2]: significantly enriched | CD86/CD206 shift in the alveolar macrophage population [1, 2]: also significant | CD206 (M2-like) in the lung macrophage population [1, 2]: significantly reduced | infiltrating macrophages / monocytes in the lungs [1, 3]: significant decrease | lung infiltrating CD8+ T-cells [1, 3]: increased; also recorded: higher numbers | resident alveolar macrophages in the lungs [1, 3]: higher frequency; also recorded: significant increase | LXR/RXR anti-inflammatory pathway in lung tissues ([1]; pathway analysis): increased | disease-related inflammation pathways (hepatic and lung fibrosis, cardiac hypertrophy) in lung tissues ([1]; pathway analysis): decrease | proliferation of DCIS / breast cancer cells in vitro (DCIS cells): no significant change | proliferation of DCIS / breast cancer cells in vitro (DCIS cells; listed as iTEAD): no effect
